Measurements taken from patent US9421179B2, “Acamprosate formulations, methods of using the same, and combinations comprising the same” (Synchroneuron Inc., priority 2011, dated 2016).
Entries after “also recorded” stand apart in the source; their conditions may differ.

Legend:
[1] = cited from earlier work
[2] = cited from earlier work; remark: listed apart in the source
[3] = system: abnormal chewing movements produced in rats by haloperidol; assay: Rat model of tardive dyskinesia (haloperidol-induced abnormal chewing movements); type: in vivo; settings: steadily-maintained blood level; rats exposed several weeks to haloperidol
Experimental: Acamprosate is tested using a rat model of tardive dyskinesia looking at abnormal chewing movements produced in rats by exposing them for several weeks to haloperidol, a potent first-generation neuroleptic. […]

tardive dyskinesia = assay: Clinical cases: acamprosate treatment of tardive dyskinesia; type: in vivo, human
Experimental: Case 1: A person had long-standing tardive dyskinesia induced by treatment of schizoaffective disorder with a variety of neuroleptics and mood stabilizers. Their TD was characterized by side to side movements of the jaw, grimacing movements, rocking of the trunk, and continual involuntary kicking, leg-crossing, and twisting movements of their legs and feet. At the time they presented for treatment of their TD they were treated for their mental illness with lamotrigine and quetiapine, a second-generation neuroleptic.
After additional weeks free of TD symptoms they discontinued the acamprosate. Their TD symptoms returned, as did feelings of anxiety and agitation that had not been present while they were on the combination of acamprosate and perphenazine.
To test the hypothesis that the efficacy of acamprosate was related to adequate time above a threshold blood level the patient was asked to try taking 1332 mg of acamprosate once a day.
CASE 2: A person had been treated with acamprosate for several years for TD due to exposure to several neuroleptics for schizoaffective disorder. They were currently treated with lamotrigine and quetiapine for their mental illness, and was taking acamprosate 1032 mg+999 mg+1032 mg on a three times daily basis. […] To test the therapeutic threshold hypothesis the patient was asked to try 1032 mg of acamprosate once a day in the morning.

[4] = system: Per2(Brdm1) deletion or ENT1(-/-) mice; assay: Transgenic mouse models with movement disorders and hyperglutamatergic states; type: in vivo; settings: steadily-maintained blood level
[5] = system: cultured rat hippocampus neurons; assay: Organotypic hippocampal slice model of glutamate neurotoxicity after acamprosate pre-treatment; type: cell-based; settings: 200 μM calcium acamprosate for 8 hr or 5 days; removed for up to eight hours; challenge NMDA 50 uM or mGluR agonist
Experimental: The study is designed to test whether pre-treatment with acamprosate can have long-term neuronal protective effects against glutamate neurotoxicity. The study uses an in vitro organotypic hippocampal slice model. The study assesses whether less than 24 hours per day of exposure to a sufficient level of acamprosate can offer 24-hour therapeutic actions in neuropsychiatric disorders. […] This supports, among other things, the therapeutic use of acamprosate in neuropsychiatric disorders because the latter are related to the effect of acamprosate to decrease glutamate effects at NMDA and metabotropic glutamate receptors.
Hippocampal slices derived from 8-day-old Sprague Dawley rats are plated and subsequently exposed to a relatively acute (8 hour) or more chronic (5 day) acamprosate treatment. […] The slices are then placed in normal medium with propidium iodide for 24 hr and assessed for neurotoxicity/neuroprotection as described below. […]
For the final medium change, the plates are moved into normal media containing propidium iodide (PI) added to each well for 24 hours. PI only penetrates cell membranes of damaged or potentially dying cells, binding to DNA to produce a bright, intensified red fluorescence at 630 nm. […] Fluorescence is recorded in arbitrary units, then converted to percent of control, facilitating comparison across multiple cultures and controlling for variation between litters.

[6] = Gastric retention time of swellable acamprosate tablet in dog model (fed mode induction with alpha-lipoic acid); type: in vivo; settings: retention of 800 mg swellable tablet; After 125 mg alpha-lipoic acid given 15 minutes before; four beagle dogs

Average gastric retention time [6] | Maximum gastric retention time [6] | Minimum gastric retention time [6] | Structure (SMILES) | decrease of bioavailability by food [1] | solubility [2] | solubility in gastric juice ([2]; gastric juice) | abnormal chewing movements [3] | relief of TD symptoms (tardive dyskinesia; Case 1, 666 mg three times a day) | relief of TD symptoms (tardive dyskinesia; Case 1, 999 mg three times a day) | anxiety and agitation (tardive dyskinesia; Case 1, 999 mg three times a day, with perphenazine) | relief of TD symptoms (tardive dyskinesia; Case 1, 1332 mg once a day) | side effects (tardive dyskinesia; Case 1, 1332 mg once a day) | relief of involuntary movements of TD (tardive dyskinesia; Case 2, 999 mg three times a day) | relief of involuntary movements of TD (tardive dyskinesia; Case 2, 1032 mg in the morning plus second dose of 1032 mg 8 to 10 hours later) | relief of involuntary movements of TD (tardive dyskinesia; Case 2, 1032 mg once a day in the morning) | relief of involuntary movements of TD (tardive dyskinesia; Case 2, 1032 mg+999 mg+1032 mg three times daily) | anxiety and agitation (tardive dyskinesia; Case 2, when involuntary movements were relieved, with lamotrigine and quetiapine) | abnormal movements [4] | effect on post-synaptic effects of glutamate agonists after removal of acamprosate from the culture medium [5]
 |  |  | CC(=O)NCCCS(=O)(=O)O [acamprosate, calcium N-acetylhomotaurinate] | approximately 30% | high solubility | immediately and completely soluble in gastric juice | reduce or eliminate the abnormal movements | partial relief of symptoms; also recorded: did not give their complete relief | complete relief of their TD | relief of anxiety and agitation | free of involuntary movements of TD | significant GI side effects of diarrhea and abdominal cramps | did not give full relief from their involuntary movements | complete relief of symptoms | free of movements in the morning and early afternoon but movements returned in the evening | completely relieved their involuntary movements of TD | less anxiety and agitation | reduce or eliminate the abnormal movements | persistent effect
2.8 h | 5 h | 1.5 h | O=C(O)CCCCC1CCSS1 (stereo not drawn) [alpha-lipoic acid] |  |  |  |  |  |  |  |  |  |  |  |  |  |  |  | 
